US20260356860A1, “2-SUBSTITUTED 3,4A,5,7,8,8A-HEXAHYDRO-4H-THIOPYRANO[4,3-DJPYRIMIDIN-4-ONES FOR WOUND TREATMENT” (priority 2022, published 2026)

Tests used:
[1] = system: E. coli (derived from ATCC ® 25922 ™); assay: Bacteriostasis, log reduction; format: cell-based; settings: E. coli ATCC 25922
[2] = system: E. faecalis (derived from ATCC ® 19433 ™); assay: Bacteriostasis, log reduction; format: cell-based; settings: E. faecalis ATCC 19433
[3] = system: K. pneumoniae (derived from ATCC ® 10031 ™); assay: Bacteriostasis, log reduction; format: cell-based; settings: K. pneumoniae ATCC 10031
[4] = system: P. aeruginosa (derived from ATCC ® 15442 ™); assay: Bacteriostasis, log reduction; format: cell-based; settings: P. aeruginosa ATCC 15442
[5] = system: P. aeruginosa (derived from ATCC ® 9027 ™); assay: Bacteriostasis, log reduction; format: cell-based; settings: P. aeruginosa ATCC 9027
[6] = system: P. vulgaris (derived from ATCC ® 8427 ™); assay: Bacteriostasis, log reduction; format: cell-based; settings: P. vulgaris ATCC 8427
[7] = system: S. maltophilia (derived from ATCC ® 13637 ™); assay: Bacteriostasis, log reduction; format: cell-based; settings: S. maltophilia ATCC 13637
new porcine skin = assay: Strain (tensile strength) of healed wound; format: in vivo; settings: topical, day 21
Method: Additional tests were performed including elasticity (Table 12); max force (Table 13); tensile strength (strain) (Table 14); energy peak (Table 15); rete-ridge formation; and collagen organization (plane polarized light) (FIG. 24) of the healed wound sites, described as follows.
A is saline (control), B is serum formulation (vehicle), C is GO-HA (vehicle), D is Compound 1; E is Compound 1+GO-HA; F is Compound 8; G is Compound 8+GO-HA; H is Compound 10; and J is Compound 10+GO-HA.
Strain (tensile strength) (N/mm^2) is the force required to pull/stretch a material to a breaking point. A 20% improvement over saline considered good. All compounds of Formula (I) tested with or without GO-HA ranged from 36% to 142% improvement in tensile strength compared to the saline control.

## O=c1[nH]c(-c2ccc(B(O)O)cc2)nc2c1CSCC2 [Compound 1, (4-(4-oxo-3,5,7,8-tetrahydro-4H-thiopyrano[4,3-d]pyrimidin-2-yl)phenyl)boronic acid]
[1]; 24 h
  Average result: <200
  Log Reduction: >3.1
  Log Value: <2.3
[1]; 72 h
  Average result: <200
  Log Reduction: >3.1
  Log Value: <2.3
[2]; 24 h
  Average result: 1.1 × 10^3
  Log Reduction: 1.8
  Log Value: 3.0
[2]; 72 h
  Average result: 1.1 × 10^4
  Log Reduction: 0.7
  Log Value: 4.1
[3]; 24 h
  Average result: 1.1 × 10^3
  Log Reduction: 1.8
  Log Value: 3.0
[3]; 72 h
  Average result: <200
  Log Reduction: >2.5
  Log Value: <2.3
[4]; 24 h
  Average result: <200
  Log Reduction: >3.1
  Log Value: <2.3
[4]; 72 h
  Average result: <200
  Log Reduction: >3.1
  Log Value: <2.3
[5]; 24 h
  Average result: <200
  Log Reduction: >3.0
  Log Value: <2.3
[5]; 72 h
  Average result: <200
  Log Reduction: >3.0
  Log Value: <2.3
[6]; 24 h
  Average result: <200
  Log Reduction: >3.6
  Log Value: <2.3
[6]; 72 h
  Average result: <200
  Log Reduction: >3.6
  Log Value: <2.3
[7]; 24 h
  Average result: <200
  Log Reduction: >2.8
  Log Value: <2.3
[7]; 72 h
  Average result: <200
  Log Reduction: >2.8
  Log Value: <2.3
New porcine skin; individual value 1
  Strain (tensile strength): 2.568 N/mm^2
New porcine skin; individual value 2
  Strain (tensile strength): 3.906 N/mm^2
New porcine skin; individual value 3
  Strain (tensile strength): 10.226 N/mm^2
New porcine skin; individual value 4
  Strain (tensile strength): 5.738 N/mm^2
New porcine skin
  Strain (tensile strength), Mean: 5.609 N/mm^2

## O=c1[nH]c(-c2ccc(-c3ccc(Br)nc3)cc2)nc2c1CSCC2 [Compound 7, 2-(4-(6-bromopyridin-3-yl)phenyl)-3,5,7,8-tetrahydro-4H-thiopyrano [4,3-d]pyrimidin-4-one]
[1]; 24 h
  Average result: 3.2 × 10^5
  Log Reduction: No
  Log Value: 5.5
[1]; 72 h
  Average result: 2.7 × 10^4
  Log Reduction: 1.0
  Log Value: 4.4
[2]; 24 h
  Average result: 9.3 × 10^5
  Log Reduction: No
  Log Value: 6.0
[2]; 72 h
  Average result: 6.9 × 10^5
  Log Reduction: No
  Log Value: 5.8
[4]; 24 h
  Average result: <200
  Log Reduction: >3.1
  Log Value: <2.3
[4]; 72 h
  Average result: <200
  Log Reduction: >3.1
  Log Value: <2.3

## CC(C)(OCCO)c1ccc(-c2nc3c(c(=O)[nH]2)CSCC3)cc1 [Compound 8, 2-(4-(2-(2-hydroxyethoxy)propan-2-yl)phenyl)-3,5,7,8-tetrahydro-4H-thiopyrano[4,3-d]pyrimidin-4-one]
[1]; 24 h
  Average result: 200
  Log Reduction: 3.1
  Log Value: 2.3
[1]; 72 h
  Average result: <200
  Log Reduction: >3.1
  Log Value: <2.3
[2]; 24 h
  Average result: 3.4 × 10^5
  Log Reduction: No
  Log Value: 5.5
[2]; 72 h
  Average result: 6.5 × 10^4
  Log Reduction: No
  Log Value: 4.8
[4]; 24 h
  Average result: 7.3 × 10^2
  Log Reduction: 2.5
  Log Value: 2.9
[4]; 72 h
  Average result: <200
  Log Reduction: >3.1
  Log Value: <2.3
New porcine skin; individual value 1
  Strain (tensile strength): 7.640 N/mm^2
New porcine skin; individual value 2
  Strain (tensile strength): 4.427 N/mm^2
New porcine skin; individual value 3
  Strain (tensile strength): 2.939 N/mm^2
New porcine skin; individual value 4
  Strain (tensile strength): 6.900 N/mm^2
New porcine skin; individual value 5
  Strain (tensile strength): 2.913 N/mm^2
New porcine skin
  Strain (tensile strength), Mean: 4.964 N/mm^2

## COC(=O)NCCOC(C)(C)c1ccc(-c2nc3c(c(=O)[nH]2)CSCC3)cc1 [Compound 18, methyl (2-((2-(4-(4-oxo-3,5,7,8-tetrahydro-4H-thiopyrano[4,3-d]pyrimidin-2-yl)phenyl)propan-2-yl)oxy)ethyl)carbamate]
[1]; 24 h
  Average result: <200
  Log Reduction: >2.3
  Log Value: <2.3
[1]; 72 h
  Average result: <200
  Log Reduction: >2.3
  Log Value: <2.3
[2]; 24 h
  Average result: 2.7 × 10^5
  Log Reduction: No
  Log Value: 5.4
[2]; 72 h
  Average result: 1.9 × 10^5
  Log Reduction: No
  Log Value: 5.3
[3]; 24 h
  Average result: <200
  Log Reduction: >2.5
  Log Value: <2.3
[3]; 72 h
  Average result: <200
  Log Reduction: >2.5
  Log Value: <2.3
[4]; 24 h
  Average result: <200
  Log Reduction: >2.9
  Log Value: <2.3
[4]; 72 h
  Average result: <200
  Log Reduction: >2.9
  Log Value: <2.3
[5]; 24 h
  Average result: <200
  Log Reduction: >2.5
  Log Value: <2.3
[5]; 72 h
  Average result: <200
  Log Reduction: >2.5
  Log Value: <2.3
[6]; 24 h
  Average result: <200
  Log Reduction: >3.6
  Log Value: <2.3
[6]; 72 h
  Average result: <200
  Log Reduction: >3.6
  Log Value: <2.3
[7]; 24 h
  Average result: <200
  Log Reduction: >2.8
  Log Value: <2.3
[7]; 72 h
  Average result: <200
  Log Reduction: >2.8
  Log Value: <2.3
